Reference: patent US7635714B2, “Methods of treating dyschezia” (priority 2002, dated 2009)

What was measured:
normal rabbits (Kbl:JW) = assay: Acceleratory effects on defecation in normal rabbits (stool weight, water content of stools); format: in vivo, rabbit
Description: To study the difference of effects between GM-611 and a laxative, sennoside (sennoside solution (trade name), Taisho Pharm. Ind., Ltd.) was used as a laxative to compare with acceleratory effects of GM-611 on defecation. More specifically, normal rabbits were orally administered with GM-611 or sennoside and then measured for the weight and water content of stools. Normal rabbits (Kbl:JW), in groups of 13 to 15, were orally administered with vehicle (3 w/v % gum arabic suspension), GM-611 (1.25 mg/kg, 2.5 mg/kg, 5 mg/kg, 10 mg/kg), vehicle (purified water), or sennoside (12 mg/kg, 24 mg/kg, 48 mg/kg). The stool weight was then measured every 4 hours until 8 hours after administration. Also, their stools were collected, dried in a dry oven (at 120° C. for 24 hours or longer) and then the dry stool weight was measured to calculate the water content of stools (%) according to the following formula: ((wet stool weight [g]−dry stool weight [g]))/wet stool weight [g])×100.

[1] = tested on: rabbits with morphine-induced defecation dysfunction; assay: Improving effect on morphine-induced defecation dysfunction in rabbits (stool weight); format: in vivo, rabbit; settings: morphine 1 mg/kg s.c.
Protocol: Effects on defecation dysfunction can be studied using an animal model with morphine-induced defecation dysfunction. To study the effect of GM-611 on defecation dysfunction, rabbits were subcutaneously administered with morphine (Anpec (trade name), Dainippon Pharmaceutical Co., Ltd.) to induce defecation dysfunction and then the stool weight was measured to evaluate the acceleratory effect of GM-611 on defecation in the model. Rabbits (Kbl:JW) were subcutaneously administered with vehicle (physiological saline) or morphine (1 mg/kg) and fed for 30 minutes (feeding stimulation), followed by oral administration of vehicle (3 w/v % gum arabic suspension) or GM-611 at a dose of 1.25 mg/kg, 2.5 mg/kg, 5 mg/kg, 10 mg/kg or 20 mg/kg. The stool weight for 2.5 hours after administration was measured (11 rabbits in each group) to examine the improving effect of GM-611 on morphine-induced defecation dysfunction.

normal dogs (beagle) = assay: Acceleratory effect on defecation in normal dogs (time until the first defecation); format: in vivo, dog
Protocol: In addition to the studies in rabbits, the acceleratory effect of GM-611 on defecation was also studied in normal dogs. Five beagle dogs were each catheterized to insert an intragastric catheter (Chugai Pharmaceutical Co., Ltd., 8.3-9.9 kg, 2 males and 3 females). Each dog was fed with pellets (CD-5 (CLEA Japan, Inc.), about 250 g) at 9:00 a.m. and then monitored for its defecation immediately after feeding. One hour after feeding, the animals […] defecation within 1 hour were intragastrically administered via the catheter with vehicle (3 w/v % gum arabic suspension) or GM-611 (0.3 mg/kg, 1 mg/kg, 3 mg/kg) and then measured for the time until the first defecation after administration.

healthy male volunteers = assay: Acceleratory effect on defecation in healthy volunteers (Phase I, repeated oral administration); format: in vivo, human
Protocol: The acceleratory effect of GM-611 on defecation was studied by repeated oral administration of GM-611 in Phase I trials. Healthy male volunteers, in groups of 6, were orally administered for 10 days with placebo or GM-611 (5 mg, 10 mg, 20 mg) on a three-times-a-day basis together with 150 mL water at 30 minutes before each meal, provided that the volunteers were administered once before breakfast on the first and tenth days. The volunteers were then monitored for their defecation during the period of administration. The acceleratory effect on defecation was assessed by the daily frequency of defecation, the number of days that at least one defecation was observed (the number of defecation days), and stool condition (watery diarrhea, muddy diarrhea, muddy soft stool, formed soft stool, normal stool, hard stool, very hard stool). It should be noted that in this test, the subjects were allocated at random to each test group and tested in a double-blind manner.

[2] = compared with erythromycin; cited from earlier work

Molecule: CC[C@H]1OC(=O)[C@H](C)[C@@H](O[C@H]2C[C@@](C)(OC)[C@@H](O)[C@H](C)O2)[C@H](C)[C@@H](O[C@@H]2O[C@H](C)C[C@H](N(C)C(C)C)[C@H]2O)[C@@]2(C)CC(C)=C(O2)[C@H](C)C(=O)[C@]1(C)OC.CC[C@H]1OC(=O)[C@H](C)[C@@H](O[C@H]2C[C@@](C)(OC)[C@@H](O)[C@H](C)O2)[C@H](C)[C@@H](O[C@@H]2O[C@H](C)C[C@H](N(C)C(C)C)[C@H]2O)[C@@]2(C)CC(C)=C(O2)[C@H](C)C(=O)[C@]1(C)OC.O=C(O)/C=C/C(=O)O [GM-611, erythromycin, 8,9-didehydro-N-demethyl-9-deoxo-6,11-dideoxy-6,9-epoxy-12-O-methyl N-(1-methylethyl)-11-oxo-, (2E)-2-butenedioate (2:1)]
- water content of stool (normal rabbits (Kbl:JW); oral 1.25-10 mg/kg GM-611): no change
- stool weight (normal rabbits (Kbl:JW); oral 1.25-10 mg/kg, 0 to 4 hours after administration, vs vehicle): dose-dependently increased
- stool weight at the maximum dose ([1]; GM-611 20 mg/kg oral, 2.5 hours): reached the same level as observed in the morphine-untreated group
- morphine-induced defecation dysfunction (stool weight for 2.5 hours after administration) ([1]; feeding stimulation, oral GM-611 1.25-20 mg/kg): dose-dependently improved
- stool condition (normal dogs (beagle); at first defecation after administration): not diarrhea
- time until the first defecation after administration (normal dogs (beagle); intragastric 0.3, 1, 3 mg/kg, 1 hour after feeding): dose-dependently decreased
- average number of defecation days (healthy male volunteers; healthy male volunteers, 5, 10, 20 mg three times a day oral for 10 days, averaged over all GM-611 groups, placebo 6.0): 8.2
- average daily frequency of defecation (healthy male volunteers; healthy male volunteers, 5, 10, 20 mg three times a day oral for 10 days, placebo 0.7): 1.0
- stool condition (healthy male volunteers; healthy male volunteers, GM-611-treated groups vs placebo-treated group): no change
- antibacterial action [2]: weaker antibacterial action than erythromycin

Molecule: CN1CC[C@]23c4c5ccc(O)c4O[C@H]2[C@@H](O)C=C[C@H]3[C@H]1C5 [morphine, reference compound]
- defecation enhanced by feeding stimulation (stool weight) ([1]; vs physiological saline): significantly inhibited

Molecule: sennoside [reference compound]
- water content of stools (normal rabbits (Kbl:JW); oral sennoside 12-48 mg/kg): increased dose-dependently
- stool weight (normal rabbits (Kbl:JW); oral sennoside 12-48 mg/kg, significant during 4 to 8 hours after administration (delayed)): dose-dependently increased
